Experimental data reported in article PMC6526530 (Biological & pharmaceutical bulletin, 2009).

Assays:
[1] = target: T1, P-glycoprotein (ABCB1/MDR1) (Homo sapiens, UniProt P08183); experiment: inhibition of transepithelial DRV transport in L-MDR1 monolayers; format: cell-based
[2] = target: T1, P-glycoprotein (ABCB1/MDR1); experiment: transepithelial transport in L-MDR1 vs LLC-PK1 monolayers; format: cell-based

T1 sequence (P08183 whole entry): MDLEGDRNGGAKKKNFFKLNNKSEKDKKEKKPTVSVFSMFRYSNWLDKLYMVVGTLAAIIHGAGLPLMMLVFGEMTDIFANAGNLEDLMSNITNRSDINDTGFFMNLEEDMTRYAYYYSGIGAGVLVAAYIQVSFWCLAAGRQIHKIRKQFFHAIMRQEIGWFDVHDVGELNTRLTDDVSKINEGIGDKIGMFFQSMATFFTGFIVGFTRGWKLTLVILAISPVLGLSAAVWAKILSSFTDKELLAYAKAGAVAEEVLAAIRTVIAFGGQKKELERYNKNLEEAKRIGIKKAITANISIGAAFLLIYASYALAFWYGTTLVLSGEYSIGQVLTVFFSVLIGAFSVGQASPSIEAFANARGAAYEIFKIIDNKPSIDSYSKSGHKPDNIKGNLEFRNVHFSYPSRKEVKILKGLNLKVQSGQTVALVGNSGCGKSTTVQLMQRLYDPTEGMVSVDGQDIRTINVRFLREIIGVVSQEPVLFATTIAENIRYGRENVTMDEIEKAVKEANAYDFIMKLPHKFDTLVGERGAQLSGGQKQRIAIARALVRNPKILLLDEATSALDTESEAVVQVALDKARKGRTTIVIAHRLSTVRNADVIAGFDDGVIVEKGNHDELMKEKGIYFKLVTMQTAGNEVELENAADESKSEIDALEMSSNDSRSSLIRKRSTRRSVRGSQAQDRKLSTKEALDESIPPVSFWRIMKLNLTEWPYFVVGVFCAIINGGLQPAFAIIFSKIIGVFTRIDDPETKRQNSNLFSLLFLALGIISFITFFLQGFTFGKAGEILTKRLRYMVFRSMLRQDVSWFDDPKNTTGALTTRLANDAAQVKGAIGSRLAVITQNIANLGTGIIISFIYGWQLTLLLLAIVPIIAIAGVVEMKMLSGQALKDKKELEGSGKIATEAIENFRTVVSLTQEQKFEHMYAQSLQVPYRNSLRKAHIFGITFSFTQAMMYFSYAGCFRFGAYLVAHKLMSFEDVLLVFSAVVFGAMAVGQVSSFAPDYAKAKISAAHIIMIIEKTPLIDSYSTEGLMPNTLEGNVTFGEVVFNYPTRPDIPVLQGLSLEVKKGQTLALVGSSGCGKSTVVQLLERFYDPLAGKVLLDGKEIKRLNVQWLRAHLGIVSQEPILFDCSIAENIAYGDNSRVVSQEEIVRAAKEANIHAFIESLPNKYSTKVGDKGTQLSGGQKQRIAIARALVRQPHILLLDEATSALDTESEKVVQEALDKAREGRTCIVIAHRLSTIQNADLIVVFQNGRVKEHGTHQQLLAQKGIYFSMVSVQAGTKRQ

SMILES | inhibition of transepithelial DRV transport in L-MDR1 monolayers [1] | IC50 [2] [µM]
Cc1c(O)cccc1C(=O)N[C@@H](CSc1ccccc1)[C@H](O)CN1C[C@H]2CCCC[C@H]2C[C@H]1C(=O)NC(C)(C)C [NFV, Nelfinavir] | showed NFV to have a potent inhibitory effect on P-glycoprotein-mediated transport of DRV when compared to RTV and SQV | 
CC(C)CN(C[C@@H](O)[C@H](Cc1ccccc1)NC(=O)O[C@H]1CO[C@H]2OCC[C@H]21)S(=O)(=O)c1ccc(N)cc1 [DRV, Darunavir] |  | 121
